# In US6355799B1, “Substituted benzene compounds, process for their preparation, and herbicidal and defoliant compositions containing them” (ISK Americas Incorporated, priority 1997, dated 2002):
# What was measured:
# Format in all cases: in vivo
# [1] = tested on: field corn (Zea mays L., var. Dekalb 535, CORN); assay: Post-emerge test, crop safety; conditions: post-emerge, crop damage rating 0-100 at 14 days after application
# In short: (§1)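 Applied at 15–1000 g ai/ha from acetone in 187 l/ha spray volume. Post-emergence applications included 0.25% v/v non-ionic surfactant and reached plants sown 8–21 days before. Pre-emergence applications were incorporated by surface watering. Efficacy or crop damage was rated on a 0–100 scale after 14 days.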
# [2] = tested on: upland rice (Oryza sp., var. Tebonnet, RICE); assay: Post-emerge test, crop safety; conditions: post-emerge, crop damage rating 0-100 at 14 days after application
# In short: as §1
# [3] = tested on: green foxtail (Setaria viridis, SETVI); assay: Post-emerge test, greenhouse herbicide activity screening; conditions: post-emerge, phytotoxicity rating 0-100 at 14 days after application
# In short: (§2)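 Compounds in acetone were track-sprayed at 187 l/ha, 15–1000 g ai/ha, onto sandy loam pots. Pre-emerge seeds were sown one day before spraying, with surface watering afterwards. Post-emerge plants were at the 2–3 leaf stage and sprayed with 0.25% v/v non-ionic surfactant. Injury was rated 0–100 at 14 days.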
# [4] = tested on: large crabgrass (Digitaria sanguinalis, DIGSA); assay: as above; conditions: post-emerge, phytotoxicity rating 0-100 at 14 days after application
# In short: as §2
# [5] = tested on: velvetleaf (Abutilon theophrasti, ABUTH); assay: as above; conditions: post-emerge, phytotoxicity rating 0-100 at 14 days after application
# In short: as §2
# [6] = tested on: sicklepod (Cassia obtusifolia, CASOB); assay: as above; conditions: post-emerge, phytotoxicity rating 0-100 at 14 days after application
# In short: as §2
# [7] = tested on: redroot pigweed (Amaranthus retroflexus, AMARE); assay: as above; conditions: post-emerge, phytotoxicity rating 0-100 at 14 days after application
# In short: as §2
# [8] = tested on: barnyardgrass (Echinochloa crus-galli, ECHCG); assay: as above; conditions: post-emerge, phytotoxicity rating 0-100 at 14 days after application
# In short: as §2
# [9] = tested on: ivyleaf morningglory (Ipomoea hederacea, IPOHE); assay: as above; conditions: post-emerge, phytotoxicity rating 0-100 at 14 days after application
# In short: as §2
# [10] = tested on: lambsquarters (Chenopodium album, CHEAL); assay: as above; conditions: post-emerge, phytotoxicity rating 0-100 at 14 days after application
# In short: as §2
# [11] = tested on: green foxtail (Setaria viridis, SETVI); assay: Pre-emerge test, greenhouse herbicide activity screening; conditions: rating scale 0-100, 14 days after application
# In short: as §1
# [12] = tested on: large crabgrass (Digitaria sanguinalis, DIGSA); assay: as above; conditions: rating scale 0-100, 14 days after application
# In short: as §1
# [13] = tested on: velvetleaf (Abutilon theophrasti, ABUTH); assay: as above; conditions: rating scale 0-100, 14 days after application
# In short: as §1
# [14] = tested on: sicklepod (Cassia obtusifolia, CASOB); assay: as above; conditions: rating scale 0-100, 14 days after application
# In short: as §1
# [15] = tested on: barnyardgrass (Echinochloa crus-galli, ECHCG); assay: as above; conditions: rating scale 0-100, 14 days after application
# In short: as §1
# [16] = tested on: johnsongrass (Sorghum halepense, SORHA); assay: as above; conditions: rating scale 0-100, 14 days after application
# In short: as §1
# [17] = tested on: ivyleaf morningglory (Ipomoea hederacea, IPOHE); assay: as above; conditions: rating scale 0-100, 14 days after application
# In short: as §1
# [18] = tested on: lambsquarters (Chenopodium album, CHEAL); assay: as above; conditions: rating scale 0-100, 14 days after application
# In short: as §1
# [19] = tested on: field corn (Zea mays L., var. Dekalb 535, CORN); assay: Pre-emerge test, crop safety; conditions: rating scale 0-100, 14 days after application
# In short: as §2
# [20] = tested on: upland rice (Oryza sp., var. Tebonnet, RICE); assay: Pre-emerge test, crop safety; conditions: rating scale 0-100, 14 days after application
# In short: as §2
# [21] = tested on: redroot pigweed (Amaranthus retroflexus, AMARE); assay: Pre-emerge test, greenhouse herbicide activity screening; conditions: rating scale 0-100, 14 days after application
# In short: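 Rating: 0–100 visual injury, 14 DAA. Application: acetone, 187 l/ha, 15–1000 g ai/ha, flat-fan track sprayer with nozzle 40–45 cm above soil or canopy. Post-emerge runs used 0.25% v/v surfactant on 2–3 leaf plants.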
structure (smiles),measurement,setting,value
COc1c(Cl)cc(F)c(N2C(=O)c3ccccc3C2=O)c1NC(=O)c1ccc(F)cc1F [13-4],Post-emerge Herbicidal Activity CORN,[1]; 63 g ai/ha,5
same,Post-emerge Herbicidal Activity CORN,[1]; 250 g ai/ha,5
same,Post-emerge Herbicidal Activity RICE,[2]; 63 g ai/ha,30
same,Post-emerge Herbicidal Activity RICE,[2]; 250 g ai/ha,50
same,Post-emerge Herbicidal Activity SETVI,[3]; 63 g ai/ha,20
same,Post-emerge Herbicidal Activity SETVI,[3]; 250 g ai/ha,40
same,Post-emerge Herbicidal Activity DIGSA,[4]; 63 g ai/ha,0
same,Post-emerge Herbicidal Activity DIGSA,[4]; 250 g ai/ha,10
same,Post-emerge Herbicidal Activity ABUTH,[5]; 63 g ai/ha,100
same,Post-emerge Herbicidal Activity ABUTH,[5]; 250 g ai/ha,100
same,Post-emerge Herbicidal Activity CASOB,[6]; 63 g ai/ha,95
same,Post-emerge Herbicidal Activity CASOB,[6]; 250 g ai/ha,100
same,Post-emerge Herbicidal Activity AMARE,[7]; 63 g ai/ha,100
same,Post-emerge Herbicidal Activity AMARE,[7]; 250 g ai/ha,95
same,Post-emerge Herbicidal Activity ECHCG,[8]; 63 g ai/ha,10
same,Post-emerge Herbicidal Activity ECHCG,[8]; 250 g ai/ha,30
same,Post-emerge Herbicidal Activity IPOHE,[9]; 63 g ai/ha,85
same,Post-emerge Herbicidal Activity IPOHE,[9]; 250 g ai/ha,85
same,Post-emerge Herbicidal Activity CHEAL,[10]; 63 g ai/ha,95
same,Post-emerge Herbicidal Activity CHEAL,[10]; 250 g ai/ha,100
same,"Pre-emerge herbicidal activity, phytotoxicity rating SETVI",[11]; 63 g ai/ha,30
same,"Pre-emerge herbicidal activity, phytotoxicity rating SETVI",[11]; 250 g ai/ha,90
same,"Pre-emerge herbicidal activity, phytotoxicity rating DIGSA",[12]; 63 g ai/ha,0
same,"Pre-emerge herbicidal activity, phytotoxicity rating DIGSA",[12]; 250 g ai/ha,90
same,"Pre-emerge herbicidal activity, phytotoxicity rating ABUTH",[13]; 63 g ai/ha,90
same,"Pre-emerge herbicidal activity, phytotoxicity rating ABUTH",[13]; 250 g ai/ha,100
same,"Pre-emerge herbicidal activity, phytotoxicity rating CASOB",[14]; 63 g ai/ha,0
same,"Pre-emerge herbicidal activity, phytotoxicity rating CASOB",[14]; 250 g ai/ha,50
same,"Pre-emerge herbicidal activity, phytotoxicity rating ECHCG",[15]; 63 g ai/ha,0
same,"Pre-emerge herbicidal activity, phytotoxicity rating ECHCG",[15]; 250 g ai/ha,30
same,"Pre-emerge herbicidal activity, phytotoxicity rating SORHA",[16]; 63 g ai/ha,10
same,"Pre-emerge herbicidal activity, phytotoxicity rating SORHA",[16]; 250 g ai/ha,40
same,"Pre-emerge herbicidal activity, phytotoxicity rating IPOHE",[17]; 63 g ai/ha,10
same,"Pre-emerge herbicidal activity, phytotoxicity rating IPOHE",[17]; 250 g ai/ha,90
same,"Pre-emerge herbicidal activity, phytotoxicity rating CHEAL",[18]; 63 g ai/ha,100
same,"Pre-emerge herbicidal activity, phytotoxicity rating CHEAL",[18]; 250 g ai/ha,100
same,"Pre-emerge phytotoxicity rating, crop damage CORN",[19]; 63 g ai/ha,0
same,"Pre-emerge phytotoxicity rating, crop damage CORN",[19]; 250 g ai/ha,15
same,"Pre-emerge phytotoxicity rating, crop damage RICE",[20]; 63 g ai/ha,0
same,"Pre-emerge phytotoxicity rating, crop damage RICE",[20]; 250 g ai/ha,30
same,"Pre-emerge herbicidal activity, phytotoxicity rating AMARE",[21]; 63 g ai/ha,60
same,"Pre-emerge herbicidal activity, phytotoxicity rating AMARE",[21]; 250 g ai/ha,100
